Data set [1] concerns the target T1, human recombinant dopamine D3 receptor (Homo sapiens, UniProt P35462).
T1 construct: expressed in transfected cells
Put plainly: inhibition of [125I]iodosulpride binding, D3 receptor. Conditions: for selectivity ratio, D2 receptor affinity relative to D3 receptor affinity: D2 vs D3, times lower affinity at D2; for Ki: [125I]iodosulpride binding, cells expressing human recombinant receptor, read-out: affinity for the D3 receptor. The protocol:
(§1) The activity of the derivatives of formula (I) according to the invention was evaluated with respect to cells expressing human recombinant dopamine receptors. The inhibition constants (Ki) were measured by inhibition of [^125I]iodosulpride binding as described by Sokoloff et al. (1992). The degree of stimulation of the D3 receptor was determined by measuring the incorporation of [^3H]-thymidine in NG 108-15 cells expressing the D3 receptor (Pilon et al., 1994; Sautel et al., 1995).

Data set [2] deals with T2, human D3 receptor (Homo sapiens, UniProt P35462).
T2 construct: expressed in transfected cells; host or cells: NG 108-15 cells
Kind of data set: mitogenesis assay, [3H]thymidine incorporation in NG 108-15 cells expressing the D3 receptor. In kind it is cell-based. Conditions: for EC50: read-out: 50% effective concentration (EC50), mitogenesis; for intrinsic activity (efficacy): relative to quinpirole (full agonist, efficacy 1), nafadotride is full antagonist (efficacy 0). How it is done:
The activity of the derivatives of formula (I) according to the invention was evaluated with respect to cells expressing human recombinant dopamine receptors.
I-28 activity in vitro towards recombinant D3 receptor has been determined using a validated mitogenesis assay which was performed as follows:
After a 24 h-culture, cells were washed twice with culture medium without fetal calf serum and incubated for 16 hours with drugs in four replicates. Then [^3H]thymidine (1 μCi per well) was added for 2 hours and cells were harvested by vacuum filtration through Whatman GF/C fiber filters using an automated cell harvester (Brandel-Beckman) and rinsed 10 times with 200 μl 50 mM potassium phosphate buffer containing 150 mM NaCl. Radioactivity retained on filters was counted by liquid scintagraphy.
(In general: Incorporation of labelled thymidine or its analogues reports DNA synthesis.)

Data set [3] has as its system spontaneous locomotor activity of mice. Put plainly: spontaneous locomotor activity during habituation in mice. In kind it is in vivo. How it is done: (§2) Activity of I-28 in vivo was assessed by using a simple test recently developed (Leriche et al. 2003 and international PCT application WO 2004/084952).
(§3) Male Swiss mice (Charles River, France), weighing 26-28 g, were housed six per cage (25×15×13 cm), on a 12 h/12 h light/dark cycle (lights on at 07:00 a.m.), with food and water freely available. Room temperature ranged from 20° C. to 22° C. and humidity varied between 55% and 65%.
(§4) Dizocilpine (MK-801) [(+)-5-methyl-10,11-dihydro-5H-dibenzo[a,d]cyclohepten-5,10-imine maleate] (Sigma) was dissolved in saline (0.9% NaCl). I-28 was dissolved in a few drops of HCl and distilled water, and the pH of the solution was adjusted to pH 5 using NaOH. The doses of I-28 are expressed as the weight of the base. The compounds were injected i.p. in a volume of 5 ml·kg^−1.
All experiments were conducted between 2.00 p.m. and 6.00 p.m., and the animals were kept in the test room at least 1 hour before recording their activity. The locomotor activity was measured in an actimeter that was composed of eight individual activity cages (30×15×18 cm, with sawdust on the floor) transected by infrared beams (Imetronic, Pessac, France). […]
Mice were injected with either Vehicle (distilled water pH 5) or I-28 (0.1, 0.3, 1 or 3 mg·kg^−1), and their horizontal locomotor activity was measured for 30 minutes (spontaneous locomotor activity). […]

Data set [4] deals with MK-801-induced hyperactivity in mice. Kind of data set: MK-801-induced hyperactivity in mice. In kind it is in vivo. The protocol:
as §2, §3, §4
All experiments were conducted between 2.00 p.m. and 6.00 p.m., and the animals were kept in the test room at least 1 hour before recording their activity. The locomotor activity was measured in an actimeter that was composed of eight individual activity cages (30×15×18 cm, with sawdust on the floor) transected by infrared beams (Imetronic, Pessac, France). Counts for forward horizontal activity were incremented each time the animal moved from one-half part of the cage to the other, corresponding to disruption of two crossed parallel beams distant of 14 cm. In time-course studies, counts were summed every 5 minute.
Mice were injected with either Vehicle (distilled water pH 5) or I-28 (0.1, 0.3, 1 or 3 mg·kg^−1), and their horizontal locomotor activity was measured for 30 minutes (spontaneous locomotor activity). They were subsequently treated with saline or MK-801 (0.12 mg·kg^−1) and the activity was measured for 1 hour (MK-801-induced locomotor activity).

Data set [5] addresses T3, human recombinant dopamine D2 receptor (Homo sapiens, UniProt P14416).
T3 construct: expressed in transfected cells
Kind of data set: inhibition of [125I]iodosulpride binding, D2 receptor. Conditions: cells expressing human recombinant receptor, read-out: affinity for the D2 receptor. The protocol: as §1

Setting [6] is: NG 108-15 cells transfected with the human D3 receptor.

The text below walks through data of patent publication US7875617B2, “3,4-dihydro-2-naphthamide derivatives as selective dopamine D3 ligands” (Institut National de la Sante et de la Recherche Medicale …, priority 2005, dated 2011).

Structures are written as SMILES.

T1 sequence (P35462 whole entry): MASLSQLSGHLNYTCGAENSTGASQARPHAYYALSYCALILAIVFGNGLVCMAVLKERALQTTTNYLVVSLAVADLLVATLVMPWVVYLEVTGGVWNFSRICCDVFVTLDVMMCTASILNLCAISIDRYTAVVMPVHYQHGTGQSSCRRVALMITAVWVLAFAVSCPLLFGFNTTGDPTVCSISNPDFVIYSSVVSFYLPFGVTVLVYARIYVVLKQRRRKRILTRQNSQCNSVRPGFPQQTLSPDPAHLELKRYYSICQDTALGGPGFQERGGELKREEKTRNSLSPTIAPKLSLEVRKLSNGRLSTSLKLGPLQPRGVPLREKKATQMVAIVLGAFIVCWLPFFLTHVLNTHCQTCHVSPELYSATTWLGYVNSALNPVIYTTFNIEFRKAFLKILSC
T2 sequence (P35462 whole entry): as above
T3 sequence (P14416 whole entry): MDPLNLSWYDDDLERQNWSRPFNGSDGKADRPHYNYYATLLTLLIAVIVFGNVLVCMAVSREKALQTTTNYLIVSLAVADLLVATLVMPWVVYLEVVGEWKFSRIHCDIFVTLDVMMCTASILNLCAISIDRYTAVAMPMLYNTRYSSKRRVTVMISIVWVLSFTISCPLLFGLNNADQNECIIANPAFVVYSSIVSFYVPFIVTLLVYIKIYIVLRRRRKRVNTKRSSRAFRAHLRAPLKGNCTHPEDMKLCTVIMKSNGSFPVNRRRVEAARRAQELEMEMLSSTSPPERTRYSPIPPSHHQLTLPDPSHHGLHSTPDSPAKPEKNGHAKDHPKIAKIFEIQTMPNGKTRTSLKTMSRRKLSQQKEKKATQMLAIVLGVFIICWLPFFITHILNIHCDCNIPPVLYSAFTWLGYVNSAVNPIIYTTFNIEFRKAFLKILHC

For the compound `O=C(NCCCCN1CCN(c2cccc(O)c2)CC1)C1=Cc2ccccc2CC1` [Example 4, N-[4-[(3-hydroxyphenyl)piperazine-1-yl]butyl]-3,4-dihydronaphtalene-2-carboxamide], in data set [1], the “selectivity ratio, D2 receptor affinity relative to D3 receptor affinity” value is 160 and the Ki stood at 0.71 nM. The EC50 in data set [2] (setting [6]) is 2.2 nM. Moreover, the “intrinsic activity (efficacy)” value in data set [2] was determined as 0.85.
Regarding `N#Cc1cccc(N2CCN(CCCCNC(=O)C3=Cc4ccccc4CC3)CC2)c1` [I-28], the “change of spontaneous activity” value in data set [3] (3.0 mg·kg−1 i.p., P=0.042) was −25%. Also, the “effect on spontaneous locomotor activity during habituation” value in data set [3] (i.p., doses below 3.0 mg·kg−1, 30 minutes) was “no effect”. Moreover, the Ki in data set [1] was 2.1 nM; in data set [5], 318 nM. Besides, the “maximal response, % of that produced by quinpirole” value in data set [2] (NG 108-15 cells transfected with the human D3 receptor, mean ±SEM) was 37±2%. Also, in data set [2] (setting [6]), the EC50 was found to be 6.3 nM. The “intrinsic activity (efficacy)” value in data set [2] is listed as 0.37. Moreover, the blood-brain barrier passage result in data set [4] (inferred from activity after systemic administration in mice) is “crosses the blood-brain barrier”. Further, the “inhibition of MK-801-induced hyperactivity” value in data set [4] (mice, 0.3 mg·kg−1 i.p., P=0.031) is 36.7%; in data set [4] (mice, 1.0 mg·kg−1 i.p., P=0.0073), 46.6%; in data set [4] (mice, 3.0 mg·kg−1 i.p., P=0.0012) it was 57.3%. For the same compound, the “ED50, inhibition of MK-801-induced hyperactivity” value in data set [4] (mice, i.p., MK-801 0.12 mg·kg−1) was “about 0.3 mg·kg−1”.
Regarding `CCCCN1CCCC1CNC(=O)c1cc(C#N)c2ccccc2c1OC` (centres unmarked) [nafadotride, reference compound], the “intrinsic activity (efficacy)” value in data set [2] came to 0.
Turning to `O=C(NCCCCN1CCN(c2cccc(O)c2)CC1)c1ccc2ccccc2c1` [reference compound], in data set [1], the “selectivity ratio, D2 receptor affinity relative to D3 receptor affinity” value is 59. For the same compound, the Ki in data set [1] was 0.74 nM; in data set [5], 44 nM.
